Assay: xn = mol fraction of the nth substance listed
Conditions: 100 kPa, Liquid; for viscosity: Falling or rolling sphere viscometry; for mass density: Vibrating tube method

CCCCC1CCCCC1 [butylcyclohexane] + CCCCCCCCCC
Conditions | mass density, 293.15 K [kg/m3] | mass density, 298.15 K [kg/m3] | mass density, 303.15 K [kg/m3] | mass density, 308.15 K [kg/m3] | mass density, 313.15 K [kg/m3] | viscosity, 293.15 K [mPa·s] | viscosity, 298.15 K [mPa·s] | viscosity, 303.15 K [mPa·s] | viscosity, 308.15 K [mPa·s] | viscosity, 313.15 K [mPa·s]
x1 = 0.0508 | 733.71 | 729.95 | 726.17 | 722.37 | 718.56 | 0.944 | 0.879 | 0.82 | 0.767 | 0.72
x1 = 0.1001 | 736.83 | 733.07 | 729.29 | 725.5 | 721.69 | 0.956 | 0.89 | 0.831 | 0.778 | 0.73
x1 = 0.1992 | 743.19 | 739.43 | 735.66 | 731.87 | 728.07 | 0.984 | 0.914 | 0.853 | 0.798 | 0.748
x1 = 0.2994 | 749.74 | 745.99 | 742.22 | 738.44 | 734.64 | 1.014 | 0.94 | 0.877 | 0.819 | 0.768
x1 = 0.3996 | 756.42 | 752.67 | 748.91 | 745.13 | 741.34 | 1.047 | 0.969 | 0.903 | 0.842 | 0.789
x1 = 0.5002 | 763.27 | 759.53 | 755.76 | 751.99 | 748.2 | 1.084 | 1.003 | 0.932 | 0.869 | 0.813
x1 = 0.5955 | 769.88 | 766.14 | 762.38 | 758.61 | 754.83 | 1.122 | 1.037 | 0.963 | 0.897 | 0.84
x1 = 0.6988 | 777.19 | 773.45 | 769.7 | 765.93 | 762.15 | 1.166 | 1.078 | 1.001 | 0.931 | 0.871
x1 = 0.8012 | 784.6 | 780.86 | 777.11 | 773.34 | 769.57 | 1.21 | 1.121 | 1.039 | 0.966 | 0.902
x1 = 0.8998 | 791.88 | 788.15 | 784.4 | 780.63 | 776.86 | 1.253 | 1.159 | 1.074 | 0.998 | 0.932
x1 = 0.9497 | 795.63 | 791.89 | 788.14 | 784.37 | 780.61 | 1.275 | 1.178 | 1.091 | 1.013 | 0.946
x1 = 1 | 799.44 | 795.7 | 791.95 | 788.19 | 784.41 | 1.296 | 1.196 | 1.107 | 1.027 | 0.958

CCCCC1CCCCC1 [butylcyclohexane] + CCCCCCC
Conditions | mass density, 293.15 K [kg/m3] | mass density, 298.15 K [kg/m3] | mass density, 303.15 K [kg/m3] | mass density, 308.15 K [kg/m3] | mass density, 313.15 K [kg/m3] | viscosity, 293.15 K [mPa·s] | viscosity, 298.15 K [mPa·s] | viscosity, 303.15 K [mPa·s] | viscosity, 308.15 K [mPa·s] | viscosity, 313.15 K [mPa·s]
x1 = 0.0499 | 691.14 | 686.96 | 682.7 | 678.43 | 674.27 | 0.445 | 0.422 | 0.404 | 0.38 | 0.365
x1 = 0.0991 | 698.01 | 693.86 | 689.65 | 685.41 | 681.26 | 0.477 | 0.453 | 0.432 | 0.408 | 0.39
x1 = 0.2001 | 711.59 | 707.49 | 703.36 | 699.21 | 695.08 | 0.537 | 0.51 | 0.485 | 0.463 | 0.44
x1 = 0.2995 | 724.33 | 720.29 | 716.21 | 712.12 | 708.05 | 0.597 | 0.564 | 0.533 | 0.508 | 0.484
x1 = 0.4006 | 736.73 | 732.74 | 728.7 | 724.68 | 720.66 | 0.665 | 0.623 | 0.59 | 0.56 | 0.531
x1 = 0.4984 | 748.17 | 744.24 | 740.26 | 736.29 | 732.29 | 0.741 | 0.694 | 0.652 | 0.617 | 0.584
x1 = 0.6015 | 759.68 | 755.81 | 751.86 | 747.93 | 744 | 0.832 | 0.776 | 0.727 | 0.685 | 0.646
x1 = 0.6993 | 770.09 | 766.25 | 762.36 | 758.5 | 754.58 | 0.929 | 0.865 | 0.808 | 0.758 | 0.713
x1 = 0.7999 | 780.33 | 776.52 | 772.68 | 768.84 | 764.98 | 1.042 | 0.966 | 0.9 | 0.842 | 0.789
x1 = 0.8999 | 790.07 | 786.3 | 782.5 | 778.7 | 774.89 | 1.172 | 1.083 | 1.005 | 0.936 | 0.875
x1 = 0.9501 | 794.82 | 791.06 | 787.29 | 783.51 | 779.72 | 1.242 | 1.146 | 1.059 | 0.988 | 0.922
x1 = 1 | 799.44 | 795.7 | 791.95 | 788.19 | 784.41 | 1.296 | 1.196 | 1.107 | 1.027 | 0.958

CCCCC1CCCCC1 [butylcyclohexane] + CCCCCCCCCCCCCC
Conditions | mass density, 293.15 K [kg/m3] | mass density, 298.15 K [kg/m3] | mass density, 303.15 K [kg/m3] | mass density, 308.15 K [kg/m3] | mass density, 313.15 K [kg/m3] | viscosity, 293.15 K [mPa·s] | viscosity, 298.15 K [mPa·s] | viscosity, 303.15 K [mPa·s] | viscosity, 308.15 K [mPa·s] | viscosity, 313.15 K [mPa·s]
x1 = 0.0516 | 764.33 | 760.8 | 757.26 | 753.73 | 750.2 | 2.28 | 2.052 | 1.86 | 1.694 | 1.553
x1 = 0.1 | 765.53 | 762 | 758.46 | 754.92 | 751.38 | 2.234 | 2.011 | 1.823 | 1.662 | 1.523
x1 = 0.2001 | 768.14 | 764.6 | 761.06 | 757.51 | 753.96 | 2.135 | 1.924 | 1.746 | 1.593 | 1.463
x1 = 0.2988 | 770.93 | 767.38 | 763.83 | 760.27 | 756.69 | 2.037 | 1.838 | 1.67 | 1.526 | 1.401
x1 = 0.4001 | 774.02 | 770.46 | 766.89 | 763.31 | 759.72 | 1.934 | 1.749 | 1.592 | 1.457 | 1.341
x1 = 0.498 | 777.26 | 773.68 | 770.08 | 766.49 | 762.88 | 1.834 | 1.662 | 1.517 | 1.391 | 1.282
x1 = 0.6006 | 780.95 | 777.36 | 773.74 | 770.12 | 766.49 | 1.728 | 1.571 | 1.436 | 1.32 | 1.218
x1 = 0.7005 | 784.9 | 781.27 | 777.63 | 773.98 | 770.33 | 1.625 | 1.481 | 1.358 | 1.25 | 1.155
x1 = 0.7999 | 789.23 | 785.57 | 781.9 | 778.21 | 774.53 | 1.521 | 1.391 | 1.279 | 1.18 | 1.092
x1 = 0.9002 | 794.07 | 790.38 | 786.66 | 782.94 | 779.22 | 1.416 | 1.299 | 1.199 | 1.109 | 1.029
x1 = 0.95 | 796.66 | 792.94 | 789.21 | 785.48 | 781.73 | 1.363 | 1.254 | 1.159 | 1.073 | 0.998
x1 = 1 | 799.44 | 795.7 | 791.95 | 788.19 | 784.41 | 1.296 | 1.196 | 1.107 | 1.027 | 0.958

Reference: the NIST ThermoML archive (doi:10.1021/je400835u)
